From patent US5792747A, “Highly potent agonists of growth hormone releasing hormone” (The Administrators of the Tulane Educational Fund, priority 1995, dated 1998)
Non-standard residues stand in square brackets, D forms with d. Residues, ends and D or L forms follow the SMILES beside them. No end group written: not given here. *: point of attachment. Desaminotyrosyl = O=C(CCc1ccc(O)cc1)*; Agmatine = N=C(N)NCCCCN*; Nle = CCCC[C@H](N)C(=O)O; Orn = NCCC[C@H](N)C(=O)O; Abu = CC[C@H](N)C(=O)O

What was measured:
[1] = test system: superfused rat pituitary cell system; assay: GH release in superfused rat pituitary cell system (in vitro); type: cell-based; settings: 0.1-0.5 nM, 3 min administration, superfused rat pituitary cells
Protocol: The compounds of the present invention were tested both in vitro and in vivo. The levels of GH released in vivo by the synthetic peptides, following their intravenous (i.v.) or subcutaneous (sc.) injection in rats, are shown in Tables 2 and 3 respectively. The potencies of the peptides, based on 4-point assays, were calculated in all the Examples of this specification, by the factorial analyses of Bliss and Marks with 95% confidence limits.
Growth hormone releasing activity in vitro is assayed by using a superfused rat pituitary cell system as described in S. Vigh and A. V. Schally, Peptides 5, Suppl: 241-347, 1984, which is incorporated by reference herein. Each peptide, hGH-RH (1-29)NH2 (as control) and the synthetic peptide hGH-RH analogs of the present invention, is administered for 3 minutes (1 ml. perfusate) at various concentrations as shown below. Fractions of 1 ml are coIlected and the GH content in each is determined by RIA.

GH-deficient children = settings: subcutaneously twice a day; cited from earlier work

Row | Compound | Potency relative to hGH-RH(1-29)NH2 = 1 (GH release in vitro) [1] | share of GH-deficient children in whom linear growth was promoted (GH-deficient children)
1 | CCCC[C@H](NC(=O)[C@@H](NC(=O)[C@H](CC(=O)O)NC(=O)[C@H](CCC(N)=O)NC(=O)[C@H](CC(C)C)NC(=O)[C@H](CC(C)C)NC(=O)[C@H](CCCN)NC(=O)[C@H](CCCNC(=N)N)NC(=O)[C@H](C)NC(=O)[C@H](CO)NC(=O)[C@H](CC(C)C)NC(=O)[C@H](CCC(N)=O)NC(=O)[C@H](CC)NC(=O)[C@H](CC(C)C)NC(=O)[C@@H](NC(=O)[C@H](CCCN)NC(=O)[C@H](CCCNC(=N)N)NC(=O)[C@H](Cc1ccc(O)cc1)NC(=O)[C@H](CO)NC(=O)[C@H](CC(N)=O)NC(=O)[C@@H](NC(=O)[C@H](Cc1ccccc1)NC(=O)[C@@H](NC(=O)[C@H](C)NC(=O)[C@H](CC(=O)O)NC(=O)[C@H](C)NC(=O)CCc1ccc(O)cc1)[C@@H](C)CC)[C@@H](C)O)C(C)C)[C@@H](C)CC)C(=O)N[C@@H](CO)C(=O)NCCCCNC(=N)N [Example I, (Dat^1,Orn ^12,21,Abu^15,Nle^27,Agm^29)hGH-RH(1-29)] (Desaminotyrosyl-ADAIFTNSYR[Orn]VL[Abu]QLSAR[Orn]LLQDI[Nle]S-Agmatine) | 5.9 | –
2 | CCCC[C@H](NC(=O)[C@@H](NC(=O)[C@H](CC(=O)O)NC(=O)[C@H](CCC(N)=O)NC(=O)[C@H](CC(C)C)NC(=O)[C@H](CC(C)C)NC(=O)[C@H](CCCCN)NC(=O)[C@H](CCCNC(=N)N)NC(=O)[C@H](C)NC(=O)[C@H](CO)NC(=O)[C@H](CC(C)C)NC(=O)[C@H](CCC(N)=O)NC(=O)[C@H](CC)NC(=O)[C@H](CC(C)C)NC(=O)[C@@H](NC(=O)[C@H](CCCN)NC(=O)[C@H](CCCNC(=N)N)NC(=O)[C@H](Cc1ccc(O)cc1)NC(=O)[C@H](CO)NC(=O)[C@H](CC(N)=O)NC(=O)[C@@H](NC(=O)[C@H](Cc1ccccc1)NC(=O)[C@@H](NC(=O)[C@H](C)NC(=O)[C@H](CC(=O)O)NC(=O)[C@H](C)NC(=O)CCc1ccc(O)cc1)[C@@H](C)CC)[C@@H](C)O)C(C)C)[C@@H](C)CC)C(=O)N[C@@H](CO)C(=O)NCCCCNC(=N)N [Example III, (Dat^1,Orn^12,Abu^15,Nle^27,Agm^29)hGH-RH(1-29)] (Desaminotyrosyl-ADAIFTNSYR[Orn]VL[Abu]QLSARKLLQDI[Nle]S-Agmatine) | 3.8 | –
3 | hGH-RH(1-29)NH2 (YADAIFTNSYRKVLGQLSARKLLQDIMSR-NH2; UniProt P01286 32-60, looked up, fragment) | – | approximately 50%
4 | CCCC[C@H](NC(=O)[C@@H](NC(=O)[C@H](CC(=O)O)NC(=O)[C@H](CCC(N)=O)NC(=O)[C@H](CC(C)C)NC(=O)[C@H](CC(C)C)NC(=O)[C@H](CCCN)NC(=O)[C@H](CCCNC(=N)N)NC(=O)[C@H](C)NC(=O)[C@H](CO)NC(=O)[C@H](CC(C)C)NC(=O)[C@H](CCC(N)=O)NC(=O)[C@H](CC)NC(=O)[C@H](CC(C)C)NC(=O)[C@@H](NC(=O)[C@H](CCCCN)NC(=O)[C@H](CCCNC(=N)N)NC(=O)[C@H](Cc1ccc(O)cc1)NC(=O)[C@H](CO)NC(=O)[C@H](CC(N)=O)NC(=O)[C@@H](NC(=O)[C@H](Cc1ccccc1)NC(=O)[C@@H](NC(=O)[C@H](C)NC(=O)[C@H](CC(=O)O)NC(=O)[C@H](C)NC(=O)CCc1ccc(O)cc1)[C@@H](C)CC)[C@@H](C)O)C(C)C)[C@@H](C)CC)C(=O)N[C@@H](CO)C(=O)NCCCCNC(=N)N [Example II, (Dat^1,Abu^15,Orn^21,Nle^27,Agm^29)hGH-RH(1-29)] (Desaminotyrosyl-ADAIFTNSYRKVL[Abu]QLSAR[Orn]LLQDI[Nle]S-Agmatine) | 6.4 | –
